Laboratory results published in patent US20250313635A1, “ANTI-INTEGRIN ANTIBODIES AND USES THEREOF” (Merck Sharp & Dohme LLC, priority 2022, published 2025).
Read-outs that look alike come from different tables or passages of the source.

Legend:
[1] = target: T1, hαvβ6 (Homo sapiens, UniProt P06756+P18564); test: Human AlphaLISA integrin-ligand blocking assay (LAP); format: biochemical
T1 construct: The full extracellular domains for all α and β integrin subunits; (GGGS)3 linker (C); acidic coiled-coil with cysteine (C); GG-Avitag (C); hexa-histidine tag (C); basic coiled-coil with cysteine (C); made in house; host or cells: Expi293 cells
T1 sequence (P06756 31-992 limits assumed): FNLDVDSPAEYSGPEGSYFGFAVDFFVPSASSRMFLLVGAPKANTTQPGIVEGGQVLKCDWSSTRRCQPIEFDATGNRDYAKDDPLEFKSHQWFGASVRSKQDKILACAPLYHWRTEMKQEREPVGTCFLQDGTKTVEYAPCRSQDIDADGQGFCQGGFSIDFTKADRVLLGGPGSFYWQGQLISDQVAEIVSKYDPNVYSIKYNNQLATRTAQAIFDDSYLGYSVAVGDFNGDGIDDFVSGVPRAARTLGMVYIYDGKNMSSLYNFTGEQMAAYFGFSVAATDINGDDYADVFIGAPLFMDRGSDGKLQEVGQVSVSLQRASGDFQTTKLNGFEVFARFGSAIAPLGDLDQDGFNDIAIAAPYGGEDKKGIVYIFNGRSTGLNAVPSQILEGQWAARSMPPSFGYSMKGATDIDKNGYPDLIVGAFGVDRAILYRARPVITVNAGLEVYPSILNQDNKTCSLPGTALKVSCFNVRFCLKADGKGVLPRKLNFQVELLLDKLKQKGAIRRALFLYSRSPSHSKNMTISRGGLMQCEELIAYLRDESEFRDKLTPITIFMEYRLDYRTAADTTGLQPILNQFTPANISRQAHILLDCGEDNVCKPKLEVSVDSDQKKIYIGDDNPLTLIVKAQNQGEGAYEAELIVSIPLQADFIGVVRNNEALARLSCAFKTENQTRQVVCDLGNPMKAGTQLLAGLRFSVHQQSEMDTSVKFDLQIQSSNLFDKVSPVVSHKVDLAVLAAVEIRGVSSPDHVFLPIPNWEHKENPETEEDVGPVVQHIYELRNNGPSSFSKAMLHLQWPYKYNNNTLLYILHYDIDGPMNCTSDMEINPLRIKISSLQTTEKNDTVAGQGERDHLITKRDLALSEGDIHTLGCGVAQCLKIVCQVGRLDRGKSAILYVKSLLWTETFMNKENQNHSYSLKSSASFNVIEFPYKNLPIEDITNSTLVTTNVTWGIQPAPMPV
T1 sequence (P18564 22-709 limits assumed): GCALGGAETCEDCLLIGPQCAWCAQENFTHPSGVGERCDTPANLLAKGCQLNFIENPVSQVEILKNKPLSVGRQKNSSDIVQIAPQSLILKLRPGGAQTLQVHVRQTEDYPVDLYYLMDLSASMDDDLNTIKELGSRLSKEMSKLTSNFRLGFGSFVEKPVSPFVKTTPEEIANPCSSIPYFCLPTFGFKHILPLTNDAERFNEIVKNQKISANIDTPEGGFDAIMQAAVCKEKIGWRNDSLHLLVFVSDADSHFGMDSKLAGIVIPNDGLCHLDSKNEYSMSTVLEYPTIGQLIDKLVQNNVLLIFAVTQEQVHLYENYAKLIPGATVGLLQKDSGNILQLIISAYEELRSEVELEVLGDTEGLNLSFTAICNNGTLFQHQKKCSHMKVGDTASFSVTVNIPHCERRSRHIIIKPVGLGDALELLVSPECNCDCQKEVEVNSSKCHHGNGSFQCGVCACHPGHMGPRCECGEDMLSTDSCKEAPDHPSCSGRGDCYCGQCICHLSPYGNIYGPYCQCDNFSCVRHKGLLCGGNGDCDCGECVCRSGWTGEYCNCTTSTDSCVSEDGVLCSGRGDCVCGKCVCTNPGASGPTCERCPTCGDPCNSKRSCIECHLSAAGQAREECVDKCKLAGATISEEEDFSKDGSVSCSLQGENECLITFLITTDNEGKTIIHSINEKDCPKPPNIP
Description: (§1) Integrin AlphaLISA assay. In the AlphaLISA integrin assays, we used a HEPES based buffer (25 mM HEPES pH 7.4, 137 mM NaCl, 1 mM MgCl2, 1 mM MnCl2, 2 mM CaCl2, 2.7 mM KCl, and 0.05% Tween 20). Optimal assay conditions were determined with a titration of the reagents for signal noise ratio (S/N), linear range, etc. For the respective integrins, we used the final concentrations described in Table 9.
(§2) Briefly, the testing antibody (8 μL) was added as a 4×(of Final testing concentration) solution in the HEPES buffer described previously into a 384w AlphaPlate™ (Perkin Elmer #6005350). Then the integrin and ligand were added sequentially as 8×(4 μL each). Plates were sealed and incubated at room temperature for two hours. Then 4×acceptor bead solution ([…]) was added, and the plates were resealed and incubated at room temperature (RT) for one hour. Finally, 4×([…]) donor beads solution was added in a darkened room and incubated for 45 minutes at room temperature. Plates were read on the Envision (Perkin Elmer) in AlphaScreen™ mode within three hours of donor bead addition.

[2] = target: T2, hαvβ8 (Homo sapiens, UniProt P06756+P26012); test: as above; format: biochemical
T2 construct: The full extracellular domains for all α and β integrin subunits; (GGGS)3 linker (C); acidic coiled-coil with cysteine (C); GG-Avitag (C); hexa-histidine tag (C); basic coiled-coil with cysteine (C); made in house; host or cells: Expi293 cells
T2 sequence (P06756 31-992 limits assumed): as the sequence (P06756 31-992 limits assumed) above
T2 sequence (P26012 43-684 limits assumed): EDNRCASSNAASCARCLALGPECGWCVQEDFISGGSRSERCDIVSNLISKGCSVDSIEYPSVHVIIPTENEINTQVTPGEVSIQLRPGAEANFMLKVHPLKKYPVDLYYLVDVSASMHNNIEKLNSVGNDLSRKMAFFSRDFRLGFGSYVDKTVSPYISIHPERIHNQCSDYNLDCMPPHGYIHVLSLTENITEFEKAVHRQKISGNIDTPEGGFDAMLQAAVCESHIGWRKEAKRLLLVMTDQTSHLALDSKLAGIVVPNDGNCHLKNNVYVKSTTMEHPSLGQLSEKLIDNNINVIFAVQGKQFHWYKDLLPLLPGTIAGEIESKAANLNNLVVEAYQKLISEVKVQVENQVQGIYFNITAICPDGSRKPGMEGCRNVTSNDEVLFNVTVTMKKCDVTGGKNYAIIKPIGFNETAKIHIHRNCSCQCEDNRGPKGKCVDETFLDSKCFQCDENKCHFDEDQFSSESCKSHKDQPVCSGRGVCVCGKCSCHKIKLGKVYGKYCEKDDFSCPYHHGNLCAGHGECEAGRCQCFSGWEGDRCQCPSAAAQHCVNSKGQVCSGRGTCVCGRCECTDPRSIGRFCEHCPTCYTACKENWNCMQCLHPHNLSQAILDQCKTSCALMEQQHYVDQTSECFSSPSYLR
Description: as §1, §2

[3] = target: T3, mαvβ5 (Mus musculus, UniProt O70309+P43406); test: Mouse AlphaLISA integrin-ligand blocking assay (vitronectin); format: biochemical; settings: Table 12; read-out: IC50 Mouse integrin AlphaLISA assays mαvβ5
T3 construct: The full extracellular domains for all α and β integrin subunits; (GGGS)3 linker (C); acidic coiled-coil with cysteine (C); GG-Avitag (C); hexa-histidine tag (C); basic coiled-coil with cysteine (C); made in house; host or cells: Expi293 cells
Description: as §1, §2

[4] = target: T4, mαvβ3 (Mus musculus, UniProt O54890+P43406); test: as above; format: biochemical; settings: Table 12; read-out: IC50 Mouse integrin AlphaLISA assays mαvβ3
T4 construct: The full extracellular domains for all α and β integrin subunits; (GGGS)3 linker (C); acidic coiled-coil with cysteine (C); GG-Avitag (C); hexa-histidine tag (C); basic coiled-coil with cysteine (C); made in house; host or cells: Expi293 cells
Description: as §1, §2

[5] = target: T5, mouse αvβ3 (Mus musculus, UniProt O54890+P43406); test: Cell adhesion assay, CHOK1-mαvβ3 cells on vitronectin; format: cell-based; settings: FIG. 11
T5 construct: expressed in transfected cells
Description: (§3) Cell adhesion assay. For plate preparation, Epic 384-well assay plates (Corning #5040) were washed with OptiMEM™ (Gibco #31985-070) and coated with murine fibronectin (Abcam #ab92784) at a concentration of 0.1 μg/well for CHO-α5KO-mαvβ1 cells; murine vitronectin (Abcam #ab92727) at 0.075 μg/well for CHO-mαvβ3 cells; or murine vitronectin at 0.125 μg/well for CHO-mαvβ5 (all at a volume of 25 μL/well in OptiMEM™), for one hour. Coating solution was then removed by flicking and plates were washed with OptiMEM™ and blocked with 25 μL/well of assay buffer (1% Ovalbumin (Sigma #A5503-10G) in OptiMEM™ containing 1×Pen-Strep (Gibco #15140-148)). A 5-minute baseline reading was taken on a Corning Epica Plate Reader (Model: Epic BT-157900) before removing the assay buffer and adding cells pre-incubated with inhibitors. The Epic™ plate reader detects cellular mass redistribution (adhesion) on the plate surface as a picometer wavelength shift over time. For inhibitor titration preparation: fivefold serial dilutions of small molecule inhibitor MK-0429 or antibody inhibitor Ab-31 were prepared in assay buffer at 4× the final concentration in a 384-well polypropylene plate in a volume of 15 μL per well, starting at a concentration of 800 nM. […]

[6] = target: T6, mouse αvβ5 (Mus musculus, UniProt O70309+P43406); test: Cell adhesion assay, CHOK1-mαvβ5 cells on vitronectin; format: cell-based; settings: FIG. 11
T6 construct: expressed in transfected cells
Description: as §3

[7] = target: T7, mαvβ1 (Mus musculus, UniProt P09055+P43406); test: Mouse AlphaLISA integrin-ligand blocking assay (fibronectin); format: biochemical; settings: Table 12; read-out: IC50 Mouse integrin AlphaLISA assays mαvβ1
T7 construct: The full extracellular domains for all α and β integrin subunits; (GGGS)3 linker (C); acidic coiled-coil with cysteine (C); GG-Avitag (C); hexa-histidine tag (C); basic coiled-coil with cysteine (C); made in house; host or cells: Expi293 cells
Description: as §1, §2

[8] = target: T8, mα5β1 (Mus musculus, UniProt P09055+P11688); test: as above; format: biochemical; settings: Table 12; read-out: IC50 Mouse integrin AlphaLISA assays mα5β1
T8 construct: The full extracellular domains for all α and β integrin subunits; (GGGS)3 linker (C); acidic coiled-coil with cysteine (C); GG-Avitag (C); hexa-histidine tag (C); basic coiled-coil with cysteine (C); made in house; host or cells: Expi293 cells
Description: as §1, §2

[9] = target: T9, hαvβ5 (Homo sapiens, UniProt P06756+P18084); test: Human AlphaLISA integrin-ligand blocking assay (vitronectin); format: biochemical
T9 construct: The full extracellular domains for all α and β integrin subunits; (GGGS)3 linker (C); acidic coiled-coil with cysteine (C); GG-Avitag (C); hexa-histidine tag (C); basic coiled-coil with cysteine (C); made in house; host or cells: Expi293 cells
T9 sequence (P06756 31-992 limits assumed): as the sequence (P06756 31-992 limits assumed) above
T9 sequence (P18084 24-719 limits assumed): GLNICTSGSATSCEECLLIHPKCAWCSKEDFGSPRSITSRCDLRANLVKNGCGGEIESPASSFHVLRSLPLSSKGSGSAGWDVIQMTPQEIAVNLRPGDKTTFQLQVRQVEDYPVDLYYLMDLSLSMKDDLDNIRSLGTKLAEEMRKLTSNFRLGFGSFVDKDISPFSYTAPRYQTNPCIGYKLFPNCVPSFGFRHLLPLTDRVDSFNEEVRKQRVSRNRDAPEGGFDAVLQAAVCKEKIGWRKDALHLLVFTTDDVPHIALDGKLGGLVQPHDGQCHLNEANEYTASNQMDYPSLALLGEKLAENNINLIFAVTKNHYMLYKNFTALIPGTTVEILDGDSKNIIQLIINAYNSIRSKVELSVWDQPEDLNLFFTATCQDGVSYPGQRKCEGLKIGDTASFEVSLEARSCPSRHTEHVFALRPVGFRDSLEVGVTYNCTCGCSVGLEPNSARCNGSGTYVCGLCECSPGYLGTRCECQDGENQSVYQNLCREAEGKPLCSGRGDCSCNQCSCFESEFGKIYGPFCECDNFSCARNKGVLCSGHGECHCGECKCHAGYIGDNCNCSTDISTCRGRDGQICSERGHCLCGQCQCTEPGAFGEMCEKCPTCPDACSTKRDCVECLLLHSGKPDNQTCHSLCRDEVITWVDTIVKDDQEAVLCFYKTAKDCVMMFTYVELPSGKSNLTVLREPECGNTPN
Description: as §1, §2

[10] = target: T10, hαvβ3 (Homo sapiens, UniProt P05106+P06756); test: as above; format: biochemical
T10 construct: The full extracellular domains for all α and β integrin subunits; (GGGS)3 linker (C); acidic coiled-coil with cysteine (C); GG-Avitag (C); hexa-histidine tag (C); basic coiled-coil with cysteine (C); made in house; host or cells: Expi293 cells
T10 sequence (P06756 31-992 limits assumed): as the sequence (P06756 31-992 limits assumed) above
T10 sequence (P05106 27-718 limits assumed): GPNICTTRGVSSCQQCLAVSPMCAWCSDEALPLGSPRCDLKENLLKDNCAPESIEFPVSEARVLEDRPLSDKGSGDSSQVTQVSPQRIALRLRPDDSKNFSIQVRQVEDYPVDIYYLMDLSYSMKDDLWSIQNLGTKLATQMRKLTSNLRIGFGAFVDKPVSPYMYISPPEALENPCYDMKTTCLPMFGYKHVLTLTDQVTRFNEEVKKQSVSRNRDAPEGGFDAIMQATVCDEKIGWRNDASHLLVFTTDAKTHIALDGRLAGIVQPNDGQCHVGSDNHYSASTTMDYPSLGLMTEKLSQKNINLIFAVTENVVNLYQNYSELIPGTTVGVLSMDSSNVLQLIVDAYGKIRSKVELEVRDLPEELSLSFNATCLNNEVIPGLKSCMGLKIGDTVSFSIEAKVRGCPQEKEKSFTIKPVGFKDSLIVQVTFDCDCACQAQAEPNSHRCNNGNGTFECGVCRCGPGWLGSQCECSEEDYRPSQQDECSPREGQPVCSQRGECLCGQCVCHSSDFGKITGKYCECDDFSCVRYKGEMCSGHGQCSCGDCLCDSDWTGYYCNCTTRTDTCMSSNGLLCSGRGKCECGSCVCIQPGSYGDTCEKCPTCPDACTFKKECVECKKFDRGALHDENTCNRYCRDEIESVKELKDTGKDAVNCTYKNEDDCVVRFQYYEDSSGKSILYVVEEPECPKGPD
Description: as §1, §2

[11] = target: T11, mαvβ6 (Mus musculus, UniProt P43406+Q9Z0T9); test: Mouse AlphaLISA integrin-ligand blocking assay (LAP); format: biochemical; settings: Table 12; read-out: IC50 Mouse integrin AlphaLISA assays mαvβ6
T11 construct: The full extracellular domains for all α and β integrin subunits; (GGGS)3 linker (C); acidic coiled-coil with cysteine (C); GG-Avitag (C); hexa-histidine tag (C); basic coiled-coil with cysteine (C); made in house; host or cells: Expi293 cells
Description: as §1, §2

[12] = target: T12, mαvβ8 (Mus musculus, UniProt P43406+Q0VBD0); test: as above; format: biochemical; settings: Table 12; read-out: IC50 Mouse integrin AlphaLISA assays mαvβ8
T12 construct: The full extracellular domains for all α and β integrin subunits; (GGGS)3 linker (C); acidic coiled-coil with cysteine (C); GG-Avitag (C); hexa-histidine tag (C); basic coiled-coil with cysteine (C); made in house; host or cells: Expi293 cells
Description: as §1, §2

`COc1ccc([C@H](CC(=O)O)N2CCN(CCCc3ccc4c(n3)NCCC4)C2=O)cn1` [MK-0429, (3S)-3-(6-methoxypyridin-3-yl)-3-[2-oxo-3-[3-(5,6,7,8-tetrahydro-1,8-naphthyridin-2-yl)propyl]imidazolidin-1-yl]propanoic acid] gave an IC50 ([1]; FIG. 3D, curve-fitted, read-out: IC50 against human αvβ6, AlphaLISA) of 3.8 nM, an IC50 ([1]; Table 11, read-out: IC50 Human integrin AlphaLISA assays hαvβ6) of 0.5 nM and an IC50 ([2]; FIG. 3D, curve-fitted, read-out: IC50 against human αvβ1 (as printed, fifth integrin listed), AlphaLISA) of 58.3 nM. The IC50 ([2]; Table 11, read-out: IC50 Human integrin AlphaLISA assays hαvβ8) was 3.1 nM, the IC50 [3] was 48.3 nM and the IC50 [4] was 0.9 nM. For the same compound, the “cell adhesion of mouse αvβ3 on a vitronectin matrix” value [5] was “decreased”, the “cell adhesion of mouse αvβ5 on a vitronectin matrix” value [6] was “decreased” and the IC50 [7] was 1.3 nM. For the same compound, the IC50 [8] was 50.3 nM, the IC50 ([9]; FIG. 3D, curve-fitted, read-out: IC50 against human αvβ5, AlphaLISA) was 9.9 nM and the IC50 ([9]; Table 11, read-out: IC50 Human integrin AlphaLISA assays hαvβ5) was 2.9 nM. For the same compound, the IC50 ([10]; FIG. 3D, curve-fitted, read-out: IC50 against human αvβ3, AlphaLISA) was 0.15 nM, the IC50 ([10]; Table 11, read-out: IC50 Human integrin AlphaLISA assays hαvβ3) was 1.6 nM and the IC50 [11] was 0.4 nM. It also gave an IC50 [12] of 5.3 nM.
